In patent publication US20180104232A1, “METHODS FOR DETERMINING PROGNOSIS FOR BREAST CANCER PATIENTS” (The University of Chicago, priority 2015, published 2018):

Key:
human TNBC BM1 cells = assay: Relative CCL5 mRNA in BM1 cells treated with JQ1; format: cell-based; conditions: 300 nM JQ1, GAPDH loading control
Experimental: (§1) FIG. 21: Relative levels of HMGA2 (first bar of each set) and CCL5 (second bar of each set) are shown for the human triple-negative BM1 cell line (top) and the mouse basal-like breast cancer M6C cell line (bottom) treated with the bromodomain inhibitor JQ1, known to block HMGA2 activity. Relative levels of mRNA were calculated using the formula RQ=2-^˜˜CT with GAPDH as the loading control*0.05>p>0.01 ***0.001>p.
(§2) To overcome resistance to Maraviroc and increased CCL5 levels, the inventors are treating the tumor cells with JQ1, a bromodomain inhibitor which regulates HMGA2. HMGA2 is an upstream regulator of CCL5. Additionally, both genes expression levels are included in our prognostic signature. […] We plan to in the future test whether JQ1 in conjunction with Maraviroc are able to lead to a reduction in metastasis in a mouse model.

[1] = system: mouse basal-like M6C cells; assay: Relative CCL5 mRNA in M6C cells treated with JQ1; format: cell-based; conditions: 300 nM JQ1, GAPDH loading control
Experimental: as §1, §2

CCL5 = conditions: tumor cells isolated from treated mice
Experimental: (§3) FIG. 20A-F: A) Final tumor weights shown for nude mice treated with the anti-Progranulin neutralizing antibody A23 alone or in combination with the CCR5 inhibitor Maraviroc for 21 days starting at day 3. B) The corresponding growth curves for the treated mice. Tumor volume is calculated as (π/6)*length2*width C) To measure the _rst step of metastasis we examine the relative number of tumor cells intravasating into the blood stream. This is calculated as the relative amount of human GAPDH compared to mouse Gapdh mRNA from cells isolated from blood after treatment. D) Tumor-associated macrophages were isolated from treated mice and qRT-PCR was performed to determine the relative amount of mRNA with Gapdh serving as the loading control; each set of four bars is data from the control, A23, Maraviroc, and A23+Maraviroc, respectively. E-F) Tumor cells were isolated from tumors stripped of mouse cells. RNA was collected and Relative CCL5 and Progranulin (GRN) were calculated with GAPDH as a loading control. *0.05>p>0.01 ** 0.01>p>0.001

CCL7 = conditions: TAMs isolated from treated mice
Experimental: as §3

tumors in nude mice = assay: Treatment of tumor-bearing nude mice with A23 and/or Maraviroc (tumor weight, growth, intravasation); format: in vivo, mouse; conditions: agent alone; nude mice treated for 21 days starting at day 3
Source text: B) The corresponding growth curves for the treated mice.

Compound	CCL5 expression (human TNBC BM1 cells)	CCL5 expression [1]	CCL5 secreted by tumor cells in response to therapy (CCL5)	CCL7 in the tumor-associated macrophages (CCL7)	effectiveness of treatment in tumor-bearing mice (tumors in nude mice)
Cc1sc2c(c1C)C(c1ccc(Cl)cc1)=N[C@@H](CC(=O)OC(C)(C)C)c1nnc(C)n1-2 [JQ1]	significant reduction	significant reduction	–	–	–
Maraviroc	–	–	more CCL5	more CCL7	not effective
